Test results published in paper PMC9100673, “Acridine Based N-Acylhydrazone Derivatives as Potential Anticancer Agents: Synthesis, Characterization and ctDNA/HSA Spectroscopic Binding Properties” (Molecules, 2022).

Key:
[1] = target: T1, human serum albumin (HSA) (Homo sapiens, UniProt P02768); test: HSA competitive site-marker experiment, reverse titration with 3a; format: binding; conditions: for KSV / Kb: 25 °C
T1 construct: purchased Sigma (St. Louis, MO, USA)
Procedure: Displacement experiments were performed using warfarin and ibuprofen as site marker fluorescence probes, as these agents have been proven to bind with HSA at Sudlow sites I and II, respectively. The fluorescence quenching spectra of HSA:acridine derivatives […] (Figure 5) in the presence of increasing concentrations of specific site markers, warfarin or ibuprofen, were studied.
In addition to the spectra assays, reverse titration studies were also performed. The intensity of the fluorescence of the HSA:site marker complex was recorded at increasing concentrations of acridine derivative 3a, with the obtained results given in Figure S7. […] The obtained data were analysed using Equations (3) and (4). The linear Stern-Volmer dependence and dependence log(F0 − F)/F = log[Q] was used to obtain Stern-Volmer quenching constant values (KSV) and apparent binding constant values (Kb). […] A marked change in the quenching constant was also observed after the addition of ibuprofen, a result which could be partly due to the interaction between derivative 3a and ibuprofen. Similar changes and associated interactions between the marker and the studied ligand have been observed in other studies in which competitive experiments were conducted.
Competitive experiments of HSA were performed using warfarin and ibuprofen as standard site marker ligands. The selected markers for the site I were warfarin, whereas site II was probed using ibuprofen. HSA-acridine derivative (3a–3d) complexes at a concentration ratio of 1:1 ([HSA] = 4 μM) were titrated into specific side markers (0–20 μM). The molar ratio of the HSA:marker complexes were 1:0.5, 1:1, 1:1.5, 1:2, 1:2.5, 1:3, 1:3.5, 1:4, 1:4.5 and 1:5. The reaction mixture of the HSA-acridine derivatives complexes with the side markers were preincubated for 15 min prior to spectral measurements. Additionally, a reverse titration competitive experiment was performed for derivative 3a. The site probe-HSA complex (1:1, [HSA] = 4 μM) was titrated with derivative 3a at a concentration gradient of 0.6–6 μM. In order to determine the binding site of compound 3a, the fluorescence quenching data were analysed using Stern-Volmer and modified Stern-Volmer equations to calculate the value of the Stern-Volmer constants (KSV) and binding constants Kb, and to determine the number of binding sites n. All spectra measurements were performed at 280 nm excitation wavelength and the slits were set at 5 nm for excitation and 10 nm for emission spectra at a range of 290–550 nm and at 25 °C.

[2] = tested on: calf thymus DNA (ctDNA); test: UV-Vis absorption titration with ctDNA (Benesi-Hildebrand); format: binding; conditions: Tris-HCl pH 7.4, room temperature
Text: Changes in absorbance intensity (either hyperchromic or hypochromic) and a shift in the peak position (hypsochromicity or batochromicity) are typical spectral properties closely related to the interaction of a drug with DNA [60, 61]. […] The absorption spectra of compounds 3a–3d in the presence of increasing concentrations of ctDNA show hypochromicity (16–51%) and a slight hypsochromic shift (Δλ = 1–9 nm, 3a–3d), findings which indicate that the acridine derivatives have interacted with DNA (Table 3). […]
The binding constant Kb of compounds 3a–3d was determined using the modified Benesi-Hildebrand Equation (6):(6) A0/A−A0=εB/εB + DNA+εB/εB + DNA × 1/KbDNA, where A0 and A are the absorbances of the acridine derivatives in the absence and presence of ctDNA; εB and εB + DNA are the molar extinction coefficients of the acridine derivatives individually and in the bound complex, respectively; Kb is the binding constant; and [DNA] is the concentration of ctDNA. […]
UV-Vis absorption spectrum of the drug-ctDNA complexes were measured on a Varian Cary 100 Bio UV-Vis Spectrophotometer. The UV-Vis spectra of free compounds 3a–3d and drug-ctDNA complexes were recorded at the wavelength range of 220 to 600 nm. […]

[3] = in the presence of ibuprofen (HSA:marker 1:1)
[4] = in the presence of warfarin (HSA:marker 1:1)

T1 sequence (P02768 25-609): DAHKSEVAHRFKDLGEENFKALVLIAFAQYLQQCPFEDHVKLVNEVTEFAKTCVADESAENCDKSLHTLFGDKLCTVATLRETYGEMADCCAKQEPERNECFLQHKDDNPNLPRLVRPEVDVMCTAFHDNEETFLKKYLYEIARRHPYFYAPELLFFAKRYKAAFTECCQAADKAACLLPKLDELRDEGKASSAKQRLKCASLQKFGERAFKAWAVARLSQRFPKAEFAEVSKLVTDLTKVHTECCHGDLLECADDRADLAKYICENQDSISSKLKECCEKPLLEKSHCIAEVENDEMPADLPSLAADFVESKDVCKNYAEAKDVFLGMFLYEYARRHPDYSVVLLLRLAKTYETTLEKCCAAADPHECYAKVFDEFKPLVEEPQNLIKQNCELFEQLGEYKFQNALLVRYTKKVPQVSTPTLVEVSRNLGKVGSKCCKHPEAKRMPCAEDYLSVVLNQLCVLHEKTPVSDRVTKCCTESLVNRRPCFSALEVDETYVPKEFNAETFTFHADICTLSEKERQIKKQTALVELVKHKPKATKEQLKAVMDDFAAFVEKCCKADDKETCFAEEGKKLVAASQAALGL

| Compound | binding site on HSA ([1]; competition with warfarin and ibuprofen) | KSV [1, 3] | Kb [1, 3] | KSV [1, 4] | Kb [1, 4] | Kb, binding constant with ctDNA [2] |
| --- | --- | --- | --- | --- | --- | --- |
| O=C(N/N=C/c1cccc2cc3ccccc3nc12)c1ccccc1 [3a, N′-[(E)-(Acridin-4-yl)methylidene]benzohydrazide] | Sudlow site I | 328000 M⁻¹ | 667000 M⁻¹ | 226000 M⁻¹ | 254000 M⁻¹ |  |
| O=C(N/N=C/c1cccc2cc3ccccc3nc12)c1ccc(F)cc1 [3b, N′-[(E)-Acridin-4-ylmethylidene]-4-fluorobenzohydrazide] |  |  |  |  |  | 3180 M⁻¹ |
